Biological target: human APJ receptor (Homo sapiens (Human), UniProt P35414)
Test: [35S]GTPγS binding assay on membranes from CHO cells stably expressing human APJ receptor
Assay type: biochemical
Conditions: read-out: Activity hAPJ SPA EC50 IP
Procedure, shortened: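 Agonist-driven [35S]GTPγS (0.2 nM) binding was measured over 90 min at room temperature on human APJ-expressing CHO membranes with bead capture, in buffer containing 3 μM GDP, 200 mM NaCl and 5 mM MgCl2 (pH 7.5). Excess unlabelled GTPγS (100 μM) gave nonspecific signal; EC50 from non-linear fits.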

human APJ receptor, sequence (P35414 whole entry): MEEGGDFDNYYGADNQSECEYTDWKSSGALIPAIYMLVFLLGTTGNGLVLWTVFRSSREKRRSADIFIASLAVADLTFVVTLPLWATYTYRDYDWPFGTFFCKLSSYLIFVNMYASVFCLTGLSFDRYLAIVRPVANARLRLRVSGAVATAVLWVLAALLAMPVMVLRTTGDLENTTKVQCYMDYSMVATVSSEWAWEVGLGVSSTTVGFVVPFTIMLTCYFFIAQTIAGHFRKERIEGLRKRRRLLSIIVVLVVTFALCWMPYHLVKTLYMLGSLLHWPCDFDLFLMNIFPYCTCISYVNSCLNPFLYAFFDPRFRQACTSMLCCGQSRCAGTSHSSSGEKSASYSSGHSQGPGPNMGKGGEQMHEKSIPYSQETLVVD

Compound | EC50 [nM]
COc1cccc(OC)c1-n1c(NS(=O)(=O)[C@@H](C)[C@H](OC)c2ncc(Cl)cn2)nnc1C1CCOCC1 [Example 103.0, (1R,2S)-1-(5-chloropyrimidin-2-yl)-N-(4-(2,6-dimethoxyphenyl)-5-(tetrahydro-2H-pyran-4-yl)-4H-1,2,4-triazol-3-yl)-1-methoxypropane-2-sulfonamide] | 45
COc1ccccc1-n1c(NS(=O)(=O)[C@@H](C)[C@H](OC)c2ncc(Cl)cn2)nnc1[C@@H]1CCCO1 [Example 240.0, (1R,2S)-1-(5-chloro-2-pyrimidinyl)-1-methoxy-N-(4-(2-methoxyphenyl)-5-((2S)-tetrahydro-2-furany1)-4H-1,2,4-triazol-3-y1)-2-propanesulfonamide] | 1.3
CCc1ccccc1-n1c(NS(=O)(=O)[C@@H](C)[C@H](OC)c2ncc(Cl)cn2)nnc1[C@@H]1CCCO1 [Example 241.0, (1R,2S)-1-(5-chloro-2-pyrimidinyl)-N-(4-(2-ethylphenyl)-5-((2S)-tetrahydro-2-furanyl)-4H-1,2,4-triazol-3-y1)-1-methoxy-2-propanesulfonamide] | 1.4
CO[C@H](c1ncc(Cl)cn1)[C@H](C)S(=O)(=O)Nc1nnc([C@@H]2CCCO2)n1-c1ccccc1C [Example 242.0, (1R,2S)-1-(5-chloro-2-pyrimidinyl)-1-methoxy-N-(4-(2-methylphenyl)-5-((2S)-tetrahydro-2-furanyl)-4H-1,2,4-triazol-3-yl)-2-propanesulfonamide] | 8.7
CO[C@H](c1ncc(Cl)cn1)[C@H](C)S(=O)(=O)Nc1nnc([C@@H]2CCCO2)n1-c1ccccc1Cl [Example 243.0, (1R,2S)-N-(4-(2-chlorophenyl)-5-((2S)-tetrahydro-2-furanyl)-4H-1,2,4-triazol-3-yl)-1-(5-chloro-2-pyrimidinyl)-1-methoxy-2-propanesulfonamide] | 5.6
CO[C@H](c1ncc(Cl)cn1)[C@H](C)S(=O)(=O)Nc1nnc([C@@H]2CCCO2)n1-c1ccccc1F [Example 244.0, (1R,2S)-1-(5-chloro-2-pyrimidinyl)-N-(4-(2-fluorophenyl)-5-((2S)-tetrahydro-2-furanyl)-4H-1,2,4-triazol-3-yl)-1-methoxy-2-propanesulfonamide] | 21
COCC(COC)n1c(NS(=O)(=O)[C@@H](C)[C@H](OC)c2ncc(Cl)cn2)nnc1[C@H]1CCCO1 [Example 330.0, (1R,2S)-1-(5-chloro-2-pyrimidinyl)-N-(4-(1,3-dimethoxy-2-propanyl)-5-((2R)-tetrahydro-2-furanyl)-4H-1,2,4-triazol-3-yl)-1-methoxy-2-propanesulfonamide] | 160
COc1cccc(OC)c1-n1c(NS(=O)(=O)CCc2ccc(F)cc2C#N)nnc1[C@@H]1CCOC1 [Example 345.0, (S)-2-(2-cyano-4-fluorophenyl)-N-(4-(2,6-dimethoxyphenyl)-5-(tetrahydrofuran-3-yl)-4H-1,2,4-triazol-3-yl) ethanesulfonamide] | 100
COc1cccc(OC)c1-n1c(NS(=O)(=O)CCc2ncc(Cl)cn2)nnc1[C@@H]1CCOC1 [Example 386.0, 2-(5-chloro-2-pyrimidinyl)-N-(4-(2,6-dimethoxyphenyl)-5-((3S)-tetrahydro-3-furanyl)-4H-1,2,4-triazol-3-yl)ethanesulfonamide] | 81
COc1cccc(OC)c1-n1c(NS(=O)(=O)CCc2ncc(Cl)cn2)nnc1[C@@H]1CCCO1 [Example 388.0, 2-(5-chloro-2-pyrimidinyl)-N-(4-(2,6-dimethoxyphenyl)-5-((2S)-tetrahydro-2-furanyl)-4H-1,2,4-triazol-3-yl)ethanesulfonamide] | 9.8
COc1cccc(OC)c1-n1c(NS(=O)(=O)CCc2ncc(Cl)cn2)nnc1[C@H]1CCCO1 [Example 389.0, 2-(5-chloro-2-pyrimidinyl)-N-(4-(2,6-dimethoxyphenyl)-5-((2R)-tetrahydro-2-furanyl)-4H-1,2,4-triazol-3-yl)ethanesulfonamide] | 96
(1R,2)S-1-(5-chloropyrimidin-2-yl)-N-(5-((S)-5,5-dimethyltetrahydrofuran-2-yl)-4-(tetrahydro-2H-pyran-4-yl)-4H-1,2,4-triazol-3-yl)-1-methoxypropane-2-sulfonamide or (1R,2S)-1-(5-chloropyrimidin-2-yl)-N-(5-((R)-5,5-dimethyltetrahydrofuran-2-yl)-4-(tetrahydro-2H-pyran-4-yl)-4H-1,2,4-triazol-3-yl)-1-methoxypropane-2-sulfonamide [Example 222.0] | 740
(1R,2)S-N-(4-(2,6-dimethoxyphenyl)-5-((R)-1,4-dioxan-2-yl)-4H-1,2,4-triazol-3-yl)-1-methoxy-1-(5-methylpyrimidin-2-yl)propane-2-sulfonamide or (1R,2S)-N-(4-(2,6-dimethoxyphenyl)-5-((S)-1,4-dioxan-2-yl)-4H-1,2,4-triazol-3-yl)-1-methoxy-1-(5-methylpyrimidin-2-yl)propane-2-sulfonamide [Example 201.0] | 31
(1R,2S)-1-(5-chloro-2-pyrimidinyl)-N-(4-(1,3-dimethoxy-2-propanyl)-5-((2S,5S)-5-methyltetrahydro-2-furanyl)-4H-1,2,4-triazol-3-yl)-1-methoxy-2-propanesulfonamide or (1R,2S)-1-(5-chloro-2-pyrimidinyl)-N-(4-(1,3-dimethoxy-2-propanyl)-5-((2R,5R)-5-methyltetrahydro-2-furanyl)-4H-1,2,4-triazol-3-yl)-1-methoxy-2-propanesulfonamide [Example 252.0] | 250
(1R,2S)-1-(5-chloro-2-pyrimidinyl)-N-(4-(1,3-dimethoxy-2-propanyl)-5-((2S,5S)-5-methyltetrahydro-2-furanyl)-4H-1,2,4-triazol-3-yl)-1-methoxy-2-propanesulfonamide or (1R,2S)-1-(5-chloro-2-pyrimidinyl)-N-(4-(1,3-dimethoxy-2-propanyl)-5-((2R,5R)-5-methyltetrahydro-2-furanyl)-4H-1,2,4-triazol-3-yl)-1-methoxy-2-propanesulfonamide [Example 253.0] | 6.3
(1R,2S)-1-(5-chloropyridin-2-yl)-N-(4-(2,6-dimethoxyphenyl)-5-((R)-1,4-dioxan-2-yl)-4H-1,2,4-triazol-3-yl)-1-methoxypropane-2-sulfonamide or (1R,2S)-1-(5-chloropyridin-2-yl)-N-(4-(2,6-dimethoxyphenyl)-5-((S)-1,4-dioxan-2-yl)-4H-1,2,4-triazol-3-yl)-1-methoxypropane-2-sulfonamide [Example 264.0] | 1.2

Other lines, results leading:

EC50 [nM] | Compound
14 | COCC(COC)n1c(NS(=O)(=O)[C@@H](C)[C@H](OC)c2ncc(Cl)cn2)nnc1[C@@H]1CCCO1 [Example 332.0, (1R,2S)-1-(5-chloro-2-pyrimidinyl)-N-(4-(1,3-dimethoxy-2-propanyl)-5-((2S)-tetrahydro-2-furanyl)-4H-1,2,4-triazol-3-yl)-1-methoxy-2-propanesulfonamide]
60 | (1R,2S)-1-(5-chloro-2-pyridinyl)-N-(4-(1,3-dimethoxy-2-propanyl)-5-((2R,5R)-5-methyltetrahydro-2-furanyl)-4H-1,2,4-triazol-3-yl)-1-methoxy-2-propanesulfonamide or (1R,2S)-1-(5-chloro-2-pyridinyl)-N-(4-(1,3-dimethoxy-2-propanyl)-5-((2S,5S)-5-methyltetrahydro-2-furanyl)-4H-1,2,4-triazol-3-yl)-1-methoxy-2-propanesulfonamide [Example 380.0]
2.1 | (1R,2S)-1-(5-chloro-2-pyridinyl)-N-(4-(1,3-dimethoxy-2-propanyl)-5-((2R,5R)-5-methyltetrahydro-2-furanyl)-4H-1,2,4-triazol-3-yl)-1-methoxy-2-propanesulfonamide or (1R,2S)-1-(5-chloro-2-pyridinyl)-N-(4-(1,3-dimethoxy-2-propanyl)-5-((2S,5S)-5-methyltetrahydro-2-furanyl)-4H-1,2,4-triazol-3-yl)-1-methoxy-2-propanesulfonamide [Example 381.0]
14 | (1R,2S)-1-(5-chloro-2-pyrimidinyl)-N-(4-(1,3-dimethoxy-2-propanyl)-5-((2R)-5,5-dimethyltetrahydro-2-furanyl)-4H-1,2,4-triazol-3-yl)-1-methoxy-2-propanesulfonamide or (1R,2S)-1-(5-chloro-2-pyrimidinyl)-N-(4-(1,3-dimethoxy-2-propanyl)-5-((2S)-5,5-dimethyltetrahydro-2-furanyl)-4H-1,2,4-triazol-3-yl)-1-methoxy-2-propanesulfonamide [Example 307.0]
410 | (1R,2S)-1-(5-chloro-2-pyrimidinyl)-N-(4-(1,3-dimethoxy-2-propanyl)-5-((2R)-5,5-dimethyltetrahydro-2-furanyl)-4H-1,2,4-triazol-3-yl)-1-methoxy-2-propanesulfonamide or (1R,2S)-1-(5-chloro-2-pyrimidinyl)-N-(4-(1,3-dimethoxy-2-propanyl)-5-((2S)-5,5-dimethyltetrahydro-2-furanyl)-4H-1,2,4-triazol-3-yl)-1-methoxy-2-propanesulfonamide [Example 308.0]
740 | (1R,2S)-1-(5-chloro-2-pyrimidinyl)-N-(4-(1,3-dimethoxy-2-propanyl)-5-((3S)-tetrahydro-3-furanyl)-4H-1,2,4-triazol-3-yl)-1-methoxy-2-propanesulfonamide or (1R,2S)-1-(5-chloro-2-pyrimidinyl)-N-(4-(1,3-dimethoxy-2-propanyl)-5-((3R)-tetrahydro-3-furanyl)-4H-1,2,4-triazol-3-yl)-1-methoxy-2-propanesulfonamide [Example 305.0]
900 | (1R,2S)-1-(5-chloro-2-pyrimidinyl)-N-(4-(1,3-dimethoxy-2-propanyl)-5-((3S)-tetrahydro-3-furanyl)-4H-1,2,4-triazol-3-yl)-1-methoxy-2-propanesulfonamide or (1R,2S)-1-(5-chloro-2-pyrimidinyl)-N-(4-(1,3-dimethoxy-2-propanyl)-5-((3R)-tetrahydro-3-furanyl)-4H-1,2,4-triazol-3-yl)-1-methoxy-2-propanesulfonamide [Example 306.0]

Reference: patent US10150760B2, “Compounds for use in preparing heterocyclic triazole agonists of the APJ receptor” (AMGEN INC., priority 2016, dated 2018)
